Here are results for 34 compounds from US9139568B2 (Merck Patent GmbH, priority 2011, dated 2015).

The target in one experiment is P70S6K (Homo sapiens (Human), UniProt P23443, T412E). The experiment in a line: P70S6K Enzyme Assay. It is filed as biochemical. Particulars: P70S6K T412E mutant, 24 μM ATP, mobility shift (Caliper). How it is done: P70S6K inhibitor compounds are diluted and plated in 96 well plates. […] The reaction is incubated for 90 min at 25° C., before the addition of 10 mM EDTA to stop the reaction. The proportion of substrate and product (phosphorylated) peptide is analysed on a Caliper Life Sciences Lab Chip 3000, using a pressure of −1.4 psi, and upstream and downstream voltages of −3000 and −700 respectively. Product peaks are resolved before substrate peaks on the resulting chromatograms.

The target in a further experiment is AKT (Homo sapiens (Human), UniProt P31749). Put plainly: AKT Enyzme Assay. It is filed as biochemical. The following applies: His-AKT (Full Length), 160 uM ATP, mobility shift (Caliper). On the procedure: A TTP Mosquito liquid handling instrument is used to place 125 nl of the appropriate concentration of inhibitor in 100% DMSO (for a dose response curve calculation) into each well of a 384-well plate.
The reaction is incubated for 90 min at 25 C, and then stopped by the addition of 70 μl of Stop buffer (100 mM HEPES pH 7.5, 0.015% Brij-35, 10 mM EDTA (Sigma, E7889)).
The plate is read on a Caliper LC 3000 in an Off-Chip mobility shift assay format, using the following parameters for a 12-sipper chip: screening pressure −2.3 psi, upstream voltage −500, and downstream voltage −3000. These conditions cause unphosphorylated substrate and phosphorylated product peptide to resolve as separate peaks allowing direct measurement of percentage of conversion of substrate to product. The percent conversion can be plotted against concentration of inhibitor to produce a sigmoidal dose response curve, from which an IC50 can be calculated.

SMILES strings stand for the structures.

Chain of P70S6K (P23443 1-421 T412E): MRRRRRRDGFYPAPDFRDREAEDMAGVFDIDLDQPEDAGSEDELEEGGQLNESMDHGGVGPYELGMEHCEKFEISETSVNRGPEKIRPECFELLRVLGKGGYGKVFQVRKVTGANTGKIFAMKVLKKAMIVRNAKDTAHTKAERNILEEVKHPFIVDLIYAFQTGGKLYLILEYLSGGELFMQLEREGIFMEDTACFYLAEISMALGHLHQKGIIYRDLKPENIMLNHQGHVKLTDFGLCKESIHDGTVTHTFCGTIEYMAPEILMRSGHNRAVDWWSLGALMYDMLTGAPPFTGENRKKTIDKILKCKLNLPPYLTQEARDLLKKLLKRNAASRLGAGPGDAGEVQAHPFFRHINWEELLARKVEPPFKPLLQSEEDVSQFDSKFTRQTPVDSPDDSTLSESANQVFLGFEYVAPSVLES
Chain of AKT (P31749 whole entry): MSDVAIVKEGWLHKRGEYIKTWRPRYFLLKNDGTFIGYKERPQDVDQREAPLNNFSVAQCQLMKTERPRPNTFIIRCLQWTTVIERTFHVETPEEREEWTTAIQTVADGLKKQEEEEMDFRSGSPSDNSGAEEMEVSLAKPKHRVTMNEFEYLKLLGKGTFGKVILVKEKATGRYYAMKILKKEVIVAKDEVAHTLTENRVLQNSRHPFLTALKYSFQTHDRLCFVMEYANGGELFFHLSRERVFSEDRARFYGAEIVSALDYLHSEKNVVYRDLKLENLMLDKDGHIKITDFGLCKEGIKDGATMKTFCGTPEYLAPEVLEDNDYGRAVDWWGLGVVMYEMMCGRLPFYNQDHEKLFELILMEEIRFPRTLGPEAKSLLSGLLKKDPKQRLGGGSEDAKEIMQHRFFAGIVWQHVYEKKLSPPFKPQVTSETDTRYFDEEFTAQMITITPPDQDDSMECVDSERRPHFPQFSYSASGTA

One may read the IC50 as the concentration that inhibits the measured activity by half. With `NC(=O)c1ccc(N2CCN(c3ccc(F)c(Cl)c3)CC2)c2cncnc12` [Example 94, 5-[4-(3-chloro-4-fluorophenyl)-piperazin-1-yl]-quinazoline-8-carboxylic acid amide], the 50% inhibitory concentration (IC50) at P70S6K is 12 µM; at AKT it was above 100 µM.
In the case of `NC(=O)c1ccc(N2CCN(c3ccc(F)c(F)c3)CC2)c2cncnc12` [Example 92, 5-[4-(3,4-difluoro-phenyl)-piperazin-1-yl]-quinazoline-8-carboxylic acid amide], the 50% inhibitory concentration (IC50) at P70S6K was 1 µM; on AKT it was above 100 µM.
Regarding `NC(=O)c1ccc(N2CCN(c3ccccc3)CC2)c2cncnc12` [Example 91, 5-[4-phenyl-piperazin-1-yl]-quinazoline-8-carboxylic acid amide], the values for the half-inhibitory concentration (IC50) at P70S6K and at AKT were 3 µM and 15 µM, respectively.
Consider `NC(=O)c1ccc(NCCc2cccc(F)c2)c2cncnc12` [Example 99, 5-[2-(3-fluorophenyl)ethylamino]quinazoline-8-carboxamide], for which the IC50 at P70S6K turned out to be 0.12 µM; on AKT it was 2.4 µM.
The corresponding values for `NC(=O)c1ccc(NC2CNCCC2c2ccc(F)cc2)c2cncnc12` (centres unmarked) [Example 79, 5-((4-(4-fluorophenyl)piperidin-3-yl)amino)quinazoline-8-carboxamide] are 0.29 µM and 2 µM.
The corresponding values for `Cc1cccc(C2CCNCC2Nc2ccc(C(N)=O)c3ncncc23)c1` (centres unmarked) [Example 73, 5-((4-(m-tolyl)piperidin-3-yl)amino)quinazoline-8-carboxamide] are 0.39 µM and 9 µM.
For `Cc1cccc(N2CCC(Nc3ccc(C(N)=O)c4ncncc34)CC2)c1` [Example 57, 5-((1-(m-tolyl)piperidin-4-yl)amino)quinazoline-8-carboxamide] the same measures were 22 µM and above 100 µM.
Take `NC(=O)c1ccc(NC[C@@H]2CCNC2)c2cncnc12` [Example 60, (R)-5-((pyrrolidin-3-ylmethyl)amino)quinazoline-8-carboxamide]: the half-inhibitory concentration (IC50) at P70S6K was 4.8 µM; on AKT, above 100 µM.
The corresponding values for `NC(=O)c1ccc(NC2CCNCC2c2ccc(F)cc2)c2cncnc12` (centres unmarked) [Example 70, 5-((3-(4-fluorophenyl)piperidin-4-yl)amino)quinazoline-8-carboxamide] are 0.55 µM and 2.5 µM.
For `NC(=O)c1ccc(NC[C@H]2CCNC2)c2cncnc12` [Example 61, (S)-5-((pyrrolidin-3-ylmethyl)amino)quinazoline-8-carboxamide] the same measures were 1.7 µM and above 100 µM.
The corresponding values for `CN1CCC(Nc2ccc(C(N)=O)c3ncncc23)C1` (racemic) [Example 58, 5-((1-methylpyrrolidin-3-yl)amino)quinazoline-8-carboxamide] are 20 µM and above 100 µM.
As for `Cc1cccc([C@@H]2CN(c3ccc(C(N)=O)c4ncncc34)C[C@H]2CO)c1` [Example 67, 5-((3S,4R)-3-(hydroxymethyl)-4-(m-tolyl)pyrrolidin-1-yl)quinazoline-8-carboxamide], the concentration for half-maximal inhibition (IC50) at P70S6K turned out to be 0.19 µM; at AKT it was 8.2 µM.
As for `CN(CCc1ccccc1)c1ccc(C(N)=O)c2ncncc12` [Example 103, 5-[methyl(phenethyl)amino]quinazoline-8-carboxamide], the 50% inhibitory concentration (IC50) on P70S6K turned out to be 0.22 µM; on AKT it was 14 µM.
`NC(=O)c1ccc(NC2CNCCC2c2ccc(F)c(Cl)c2)c2cncnc12` (centres unmarked) [Example 76, 5-((4-(3-chloro-4-fluorophenyl)piperidin-3-yl)amino)quinazoline-8-carboxamide]: the results for the IC50 on P70S6K and at AKT were 0.033 µM and 0.57 µM, respectively.
For `NC(=O)c1ccc(NCCc2ccc(F)cc2)c2cncnc12` [Example 100, 5-[2-(4-fluorophenyl)ethylamino]quinazoline-8-carboxamide] the same measures were 0.29 µM and 4.8 µM.
The corresponding values for `NC(=O)c1ccc(NC2CNCC2c2cccc(C(F)(F)F)c2)c2cncnc12` (centres unmarked) [Example 71, 5-((4-(3-(trifluoromethyl)phenyl)pyrrolidin-3-yl)amino)quinazoline-8-carboxamide] are 0.021 µM and 4.5 µM.
Take `NC(=O)c1ccc(N[C@@H]2CNCC[C@H]2c2ccc(F)cc2)c2cncnc12` (single isomer, unassigned) [Example 81]: the IC50 came to 0.052 µM on P70S6K and 0.9 µM at AKT.
The corresponding values for `NC(=O)c1ccc(N2CCC(OCc3ccccc3)C2)c2cncnc12` (racemic) [Example 65, 5-(3-(benzyloxy)pyrrolidin-1-yl)quinazoline-8-carboxamide] are 0.71 µM and above 100 µM.
The corresponding values for `NC(=O)c1ccc(N[C@@H]2CNCC[C@H]2c2ccc(F)c(Cl)c2)c2cncnc12` (single isomer, unassigned) [Example 78] are 0.35 µM and 5.7 µM.
The corresponding values for `CN(C)C(CNc1ccc(C(N)=O)c2ncncc12)c1cccc(Cl)c1` (racemic) [Example 68, 5-((2-(3-chlorophenyl)-2-(dimethylamino)ethyl)amino)quinazoline-8-carboxamide] are 2.6 µM and above 100 µM.
With `NC(=O)c1ccc(NCc2cccnc2)c2cncnc12` [Example 62, 5-((pyridin-3-ylmethyl)amino)quinazoline-8-carboxamide], the IC50 came to 1.6 µM at P70S6K and 70 µM on AKT.
For `NC(=O)c1ccc(N(CCc2ccccc2)[C@@H]2CCCNC2)c2cncnc12` [Example 105, 5-[phenethyl-[(3R)-3-piperidyl]amino]quinazoline-8-carboxamide] the same measures were 11 µM and above 100 µM.
For `NC(=O)c1ccc(NCCc2ccc(F)c(F)c2)c2cncnc12` [Example 101, 5-[2-(3,4-difluorophenyl)ethylamino]quinazoline-8-carboxamide] the same measures were 0.36 µM and 41 µM.
For `NC(=O)c1ccc(N2CCN(c3cccc(Cl)c3)CC2)c2cncnc12` [Example 96, 5-[4-(3-chloro-phenyl)-piperazin-1-yl]-quinazoline-8-carboxylic acid amide] the same measures were 10 µM and above 100 µM.
Consider `CNCC1CCCN(c2ccc(C(N)=O)c3ncncc23)C1` (racemic) [Example 59, 5-(3-((methylamino)methyl)piperidin-1-yl)quinazoline-8-carboxamide], for which the concentration for half-maximal inhibition (IC50) at P70S6K turned out to be 5.9 µM; on AKT it was 18 µM.
The corresponding values for `NC(=O)c1ccc(N2CCN(c3ccc(F)cc3)CC2)c2cncnc12` [Example 108, 5-[4-(4-fluorophenyl)-piperazin-1-yl]-quinazoline-8-carboxylic acid amide] are 2.3 µM and above 100 µM.
The corresponding values for `NC(=O)c1ccc(N2CCN(c3cccc(C(F)(F)F)c3)CC2)c2cncnc12` [Example 109, 5-[4-(3-trifluoromethylphenyl)-piperazin-1-yl]-quinazoline-8-carboxylic acid amide] are 11 µM and 23 µM.
For the compound `Cc1ccc(Cl)cc1N1CCN(c2ccc(C(N)=O)c3ncncc23)CC1` [Example 111, 5-[4-(5-chloro-2-methylphenyl)-piperazin-1-yl]-quinazoline-8-carboxylic acid amide], the IC50 on P70S6K and at AKT was above 100 µM in each case.
For the compound `NC(=O)c1ccc(NCCc2ccccc2)c2cncnc12` [Example 98, 5-(phenethylamino)quinazoline-8-carboxamide], the IC50 worked out at 0.089 µM on P70S6K and 5.6 µM at AKT.
Take `NCC1CCCN(c2ccc(C(N)=O)c3ncncc23)C1` (racemic) [Example 56, 5-(3-(aminomethyl)piperidin-1-yl)quinazoline-8-carboxamide]: the half-inhibitory concentration (IC50) is 56 µM at P70S6K and above 100 µM at AKT.
The corresponding values for `NC(=O)c1ccc(N[C@H]2CNCC[C@@H]2c2ccc(F)c(Cl)c2)c2cncnc12` (single isomer, unassigned) [Example 77] are 0.05 µM and 0.85 µM.
For `NC(=O)c1ccc(NCc2cccc(Cl)c2)c2cncnc12` [Example 63, 5-((3-chlorobenzyl)amino)quinazoline-8-carboxamide] the same measures were 0.0592 µM and 12 µM.
As for `NC(=O)c1ccc(NC2CNCCC2c2ccc(Cl)c(F)c2)c2cncnc12` (centres unmarked) [Example 75, 5-((4-(4-chloro-3-fluorophenyl)piperidin-3-yl)amino)quinazoline-8-carboxamide], the figures for the 50% inhibitory concentration (IC50) on P70S6K and at AKT were 0.0081 µM and 0.13 µM, respectively.
The corresponding values for `NC(=O)c1ccc(N2CCC(CCc3ccccc3)C2)c2cncnc12` (racemic) [Example 64, 5-(3-phenethylpyrrolidin-1-yl)quinazoline-8-carboxamide] are 0.24 µM and 3.1 µM.
